# Assay results reported in PubChem BioAssay AID449762 (Southern Research Specialized Biocontainment Screening …, 2010).
# Records with an inconclusive call do not appear.
# Tested on: M. tuberculosis H37Rv growth inhibition, 7H9 media
# Test: M. tuberculosis growth inhibition, HTS (AID 449762);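 further: bacterial growth assessed after seven days of incubation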
# Conditions: for IC90: measured here: IC90 growth inhibition
Compound,IC50 [µM],IC90 [µM]
CN(C)c1ccc(O)c2c1CC1CC3[C@@H](N(C)C)C(=O)C(C(N)=O)C(=O)[C@]3(O)C(=O)C1C2=O (stereo partly specified),1.27,3.62
O=C(CSCc1ccc([N+](=O)[O-])cc1)N/N=C/c1ccncc1,3.47,10.3
COc1ccc(-c2cc(C3CCN(C(=O)OC(C)(C)C)CC3)[nH]n2)cc1,17,30.6
Clc1ccc(CNc2nc(CN3CCOCC3)nc3scc(-c4ccccc4)c23)cc1,17.3,43.6
CC(C)(C)c1ccc(-c2nc(-c3ccncc3)no2)cc1,9.16,33.6
Cc1cc(C)c(C(N)=O)c(SCC(=O)c2ccc(Cl)cc2)n1,35.3,63.1
CCOC(=O)C1CCN(CC(O)COc2ccc(C(C)(C)CC)cc2)CC1 (stereo unspecified),22.8,29.5
O=C(OCC#CCSc1nnc(-c2cccc3ccccc23)o1)c1cccs1,35.5,63.9
O=C(CCC(=O)NC1CCCCCCC1)Nc1nnc(C(F)(F)F)s1,12,13.9
O=C(N/N=C/c1c(F)c(F)c(F)c(F)c1F)c1cccc(S(=O)(=O)N2CCOCC2)c1,,> 100
O=C(/C=C/c1ccc(O)cc1)c1ccc(NC2=C(N3CCCCC3)C(=O)c3ccccc3C2=O)cc1,12,13.6
O=c1cc2[nH]c3ccccc3c(=O)n2nc1-c1ccccc1,6.91,18
Cc1ccc(S(=O)(=O)n2ccc3c(OCCOCCNCc4ccc(F)cc4)cccc32)cc1,22.1,25.5
CN1CCN(/N=C/c2c3ccccc3c(Cl)c3ccccc23)CC1,77.7,> 100
Cc1ccc(CN2C3CCCC2CC(NC(=S)NCc2ccccc2)C3)cc1 (stereo unspecified),45.8,52.4
CCc1cc(C(=O)NNC(=O)CCl)sc1C,2.55,4.62
CCOC(=O)c1sc(NC(=O)CN2C(=O)NC3(CC(C)CC(C)(C)C3)C2=O)cc1C (stereo unspecified),21.4,40.3
COc1cc2[nH]c3c(N4CCN(c5ccccn5)CC4)ncnc3c2cc1OC,13.6,> 50
c1ccc(/N=C2\N=C(Nc3ccccn3)c3ccccc32)nc1,1.08,1.91
C=CC[n+]1ccn(-c2nc3ccccc3nc2[N-]S(=O)(=O)c2cccs2)c1,25,28.1
CC1CCC(NC(=O)c2cc3c(s2)CCCC3)CC1 (stereo unspecified),40.1,57.1
COc1ccc(-c2cc(-c3ccc(OC)cc3)[nH]n2)cc1,0.33,1

Compound,IC50 [µM],IC90 [µM]
COc1ccc(C2c3[nH]c4ccccc4c3CCN2C(=O)c2cc3ncccn3n2)c(F)c1 (stereo unspecified),,> 100
Cc1ccc(S(=O)(=O)NCc2ccc(C(=O)NCCCN3CCC(Cc4ccccc4)CC3)cc2)cc1,79.8,> 100
COc1ccc(NC(=O)c2oc3ccc(S(=O)(=O)N4CCOCC4)cc3c2C)cc1,0.68,7.38
COc1ccc(N(CC(=O)Nc2ccccc2C(N)=O)S(=O)(=O)c2ccc(C)c([N+](=O)[O-])c2)cc1,87.7,> 100
O=C(NCC1CCN(c2ccc(S(=O)(=O)N3CCOCC3)cc2)CC1)c1ccc(Cl)cc1,31.9,51.8
COC(=O)c1ccc(NC(=S)NC(=O)C2CCC2)cc1,41.9,55.9
Oc1ccc(F)c2cccnc12,5.26,6.88
CN(C)[C@@H]1C(=O)C(C(N)=O)=C(O)[C@@]2(O)C(=O)C3=C(O)c4c(O)cccc4[C@@](C)(O)C3C[C@@H]12 (stereo partly specified),5.95,15
O=c1c(Cl)c2oc3ccccc3nc-2c2ccccc12,9.38,11.9
Cc1oc(C(=O)Nc2ccc(O)cc2)cc1COc1ccccc1,12.5,43.6
CC(C)C[C@H]1C(=O)N2CCC[C@H]2[C@]2(O)O[C@](NC(=O)C3C=C4c5cccc6[nH]c(Br)c(c56)C[C@H]4N(C)C3)(C(C)C)C(=O)N12 (stereo partly specified),,> 100
COc1ccc(C2(c3ccc(OC)cc3)NC(=O)N(CC(=O)Nc3ccc(OC(F)F)cc3)C2=O)cc1,29.9,79.9
Cc1ccc(N/C=C2\C(=O)C3(C)CCC2C3(C)C)cc1C (stereo unspecified),,> 100
CCOC(=O)c1c(C)n(-c2ccc(C)cc2)c2ccc(OCC(O)CNCC3CCCO3)cc12 (stereo unspecified),22.7,31
CCCCCc1ccc(-c2cn(Cc3cccc(OC)c3)nn2)cc1,20.7,50
CCCCCCCNC(=O)C1(CC2CC(c3cccc(Br)c3)=NO2)CCNCC1 (stereo unspecified),42,53.1
COc1ccc2c(c1)CC/C(=C\C=C\c1ccccc1OC)C2=O,7.79,17.8
C=CCOc1ccc(/C=C/C(=O)OCC(=O)NCC2CCCO2)cc1 (stereo unspecified),98.7,> 100
C(=C\c1ccccc1)/C=N/Nc1nc2ccccc2s1,,> 100
CCOC(=O)Cn1nc(-c2ccccc2)nc1-c1ccccc1,5.84,22.7
COc1ccc(/C(O)=C/Sc2nnc(Cc3ccccc3)o2)cc1,26.3,> 100
